Data: the Bradley open melting point set (2014)
Values joined by “and” are separate entries in the source; they are usually repeats but may differ in a detail not shown here. Equal values may be shown once. Where a name gives a salt, the structure may show the parent alone.

melting point	Compound
-8 °C	CCCCCCC(=O)O [heptanoic acid]
103 °C	COc1ccc2c(c1)C(=O)CC2 [6-methoxy-1-indanone]
245 °C	Nc1c2c(nc3ccccc13)CCCC2O (stereo unspecified) [velnacrine]
132 °C	O=C(O)Cc1ccc(O)c(F)c1 [3-fluoro-4-hydroxyphenylacetic acid]
98.3 °C	Cc1ccc(C)c(-c2ccc([N+](=O)[O-])cc2)c1 [2,5-Dimethyl-4'-nitrobiphenyl]
12 °C	CCCC(=O)c1ccccc1 [butyrophenone]
186 °C	O=C(O)CCC(=O)c1ccc(-c2ccccc2)cc1 [fenbufen]
214 °C	OB(O)c1cccc(F)c1 [3-fluorobenzeneboronic acid]
-93 °C	CC(C)OC=O [isopropyl formate]
111 °C	OB(O)c1ccc(C(F)(F)F)cc1Cl [2-chloro-4-(trifluoromethyl)benzeneboronic acid]
88.8 °C	O=Cc1cccc(C=O)c1 [Isophthalaldehyde]
105 °C	Clc1ncnc2sc3c(c12)CCC3
190 °C	O=C(OCc1ccccc1)c1ccc(B(O)O)cc1 [4-(benzyloxycarbonyl)benzeneboronic acid]
98 °C	c1ccc2[nH]nnc2c1 [1h-benzotriazole]
223 °C	COC(=O)c1ccc(B(O)O)cc1 [4-(methoxycarbonyl)benzeneboronic acid]
253 °C	O=C(Nc1ccc(/C=C/c2ccc(NC(=O)c3ccccc3)cc2)cc1)c1ccccc1 [N,N'-[(E)-ethene-1,2-diyldibenzene-4,1-diyl]dibenzamide]
30 °C	CC(=O)c1ccccc1[N+](=O)[O-] [o-nitroacetophenone]
87 °C	COc1ccc(CC(=O)O)cc1 [4-methoxyphenylacetic acid]
74 °C	CN(C)c1ccc(C=O)cc1 [4-dimethylaminobenzaldehyde]
30 °C	CCOC(=O)c1ccc(N=C=O)cc1 [4-(ethoxycarbonyl)phenyl isocyanate]
101 °C	CCOC(=O)C(C=Cc1cccc(C=CC(C(=O)OCC)C(=O)OCC)c1)C(=O)OCC
106 °C	C[C@H](CS)C(=O)N1CCC[C@H]1C(=O)O [Captopril]
200 °C	Cc1ccc(C(=O)O)cc1Br [3-bromo-4-methylbenzoic_acid]
112 °C	O(c1ccccc1OC\C=C)CC(O)CNC(C)C (stereo unspecified) [oxprenolol]

melting point	Compound
10 °C	NCc1ccccc1 [benzylamine]
35 °C	COc1ccc(N)c(OC)c1 [2,4-dimethoxyaniline]
130 °C	COC(=O)CCC(C)C1CCC2C3CCC4CC(=O)CCC4(C)C3CC(=O)C12C (stereo unspecified) [methyl 3,12-dioxocholan-24-oate]
175 °C	O=[N+]([O-])c1cc([N+](=O)[O-])c(C(Br)=Cc2ccccc2)cc1/C=C\c1ccccc1
-12 °C	Cc1nccnc1C [2,3-dimethylpyrazine]
140 °C	CCOC(=O)c1sc2sc(C(=O)OCC)c(C)c2c1C [diethyl 3,4-dimethylthieno[2,3-b]thiophene-2,5-dicarboxylate]
8 °C	Cc1ccc(Cl)cc1 [4-chlorotoluene]
170 °C	CN(C)c1ccc(/N=N/c2ccc(N=C=S)cc2)cc1 [4-dimethylaminoazobenzene-4'-isothiocyanate]
234 °C	Cc1ccc(B(O)O)cc1F [3-fluoro-4-methylbenzeneboronic acid]
147 °C	CCN(CC)CCNC(=O)c1cc(Cl)c(N)cc1OC [Metoclopramide]
262 °C	CCOC(=O)c1sc2sc(C#N)c(N)c2c1N
115 °C	O=[N+]([O-])c1cccc2cccc(/C=N/c3ccccc3)c12 [N-[(1E)-(8-nitronaphthalen-1-yl)methylidene]aniline]
180 °C and 181 °C	Cc1ccc(C(=O)O)cc1 [4-methylbenzoic acid]
158 °C and 157 °C	O=C(O)c1ccccc1O [salicylic acid]
224 °C	C=C1CC2C3C=C(C)C4=CC(=O)CCC4(C)C3CCC2(C)C1(OC(C)=O)C(C)=O (stereo unspecified) [melengestrolacetate]
51 °C	O=C(O)CCCc1ccccc1 [4-phenylbutyric acid]
82 °C	O=C(O)CCI [3-iodopropionic acid]
27.5 °C	NCCCCN [Putrescine]
46 °C	C[Si](C)(C)OS(=O)(=O)O[Si](C)(C)C [bis(trimethylsilyl) sulfate]
110 °C	COc1ccc2c(=O)cc(-c3ccccc3)oc2c1 [7-methoxyflavone]
31 °C	Cc1ccc(S)c(S)c1 [4-Methylbenzene-1,2-dithiol]
13 °C	Cc1ccccc1C#N [o-tolunitrile]
218 °C	CC[C@H]1OC(=O)[C@H](C)[C@@H](O[C@@H]2C[C@](C)(OC)[C@H](O)[C@@H](C)O2)[C@H](C)[C@@H](O[C@@H]2O[C@H](C)C[C@H](N(C)C)[C@H]2O)[C@](C)(OC)C[C@@H](C)C(=O)[C@H](C)[C@@H](O)[C@]1(C)O [Clarithromycin]
58 °C	COc1cc(N)ccc1C [3-methoxy-4-methylaniline]

melting point	Compound
19.5 °C	COC(=O)CCC(=O)OC [Dimethyl succinate]
118 °C	O=Cc1ccccc1B(O)O [2-formylbenzeneboronic acid]
70 °C	O=Cc1cnc2ccccc2c1 [quinoline-3-carboxaldehyde]
101 °C	ON=Cc1ccc(Cl)cc1 [4-Chlorobenzaldoxime]
119 °C	COc1ccccc1NC(=O)c1cnc(C(C)(C)C)c(Cl)n1
10 °C	CC(C)N(C=O)C(C)C [N,N-diisopropylformamide]
134 °C	CC(=O)S[C@@H]1CC2=CC(=O)CC[C@]2(C)[C@H]2CC[C@@]3(C)[C@@H](CC[C@@]34CCC(=O)O4)[C@H]12 [spironolactone]
219 °C	COC1=CC(=O)C[C@@H](C)[C@]12Oc1c(Cl)c(OC)cc(OC)c1C2=O [griseofulvin]
150 °C	CCOC(=O)c1cc(O)c(O)c(O)c1 [ethyl 3,4,5-trihydroxybenzoate]
81 °C	C/C=C/C1Nn2c(nnc2-c2ccc(OC)cc2)S1 (stereo unspecified)
-93 °C	C=C(C)CC(C)(C)C [2,4,4-trimethyl-1-pentene]
245 °C	Nc1ncnc2c1ncn2Cc1c(F)cccc1Cl [arprinocid]
134 °C	CN(C)C(=O)Nc1ccccc1 [fenuron]
350 °C	CC(C)(C)NC(=O)[C@@H]1CC2CCCCC2CN1C[C@@H](O)[C@H](Cc1ccccc1)NC(=O)[C@H](CC(N)=O)NC(=O)c1ccc2ccccc2n1 (stereo partly specified) [Saquinavir]
129 °C	O=C(O)c1ccccc1C(=O)c1ccccc1 [2-benzoylbenzoic acid]
51 °C	Oc1ccccc1C=Nc1ccccc1 [salicylideneaniline]
111 °C	O=C(NC(CO)C(=O)O)OCc1ccccc1 (stereo unspecified) [N-carbobenzoxy-serine]
-75 °C	CCCC(=O)OC(=O)CCC [butyric anhydride]
57 °C	CCOC(=O)c1csc(C)n1 [ethyl 2-methyl-1,3-thiazole-4-carboxylate]
-29 °C	BrCC(Br)Br [1,1,2-tribromoethane]
148 °C	O=C(O)c1ccc2c(c1)OCCCO2 [3,4-dihydro-2h-1,5-benzodioxepin-7-carboxylic acid]
72 °C	C=C(C)C1CC=C(C)/C(=N/O)C1 (stereo unspecified) [(1E)-5-Isopropenyl-2-methyl-2-cyclohexen-1-one oxime]
114 °C	CC[C@H]1OC(=O)[C@H](C)[C@@H](O[C@H]2C[C@@](C)(OC)[C@@H](O)[C@H](C)O2)[C@H](C)[C@@H](O[C@@H]2O[C@H](C)C[C@H](N(C)C)[C@H]2O)[C@](C)(O)C[C@@H](C)CN(C)[C@H](C)[C@@H](O)[C@]1(C)O

Compound	melting point
O=[N+]([O-])/C=C/c1ccc([N+](=O)[O-])cc1 [beta,4-dinitrostyrene]	204 °C
Cc1cccc(C)c1N [2,6-dimethylaniline]	11 °C
CCNCC [N-Ethylethanamine]	-50 °C
CC(=O)Oc1ccc(-c2ccc(OC(C)=O)cc2)cc1 [4,4'-diacetoxybiphenyl]	164 °C
Cc1ccccc1[N+](=O)[O-] [2-nitrotoluene]	-4 °C
Cl\C1=C(/Cl)C2(Cl)C3C4CC(C3C1(Cl)C2(Cl)Cl)C5OC45 (stereo unspecified) [dieldrin]	176 °C
Cc1cc(Cl)ccc1O [4-chloro-2-methylphenol]	47 °C
c1ccc2c(c1)sc1ccccc12 [dibenzothiophene]	99 °C
ClCCOCCCl [bis(2-chloroethyl) ether]	-50 °C
CCC1(C2=CCCCCC2)C(=O)NC(=O)NC1=O [heptabarbital]	175 °C
C[N+](=O)[O-] [nitromethane]	-29 °C
O=C(Cl)c1cc([N+](=O)[O-])cc([N+](=O)[O-])c1 [3,5-dinitrobenzoyl chloride]	67 °C
CCN(CC)c1ccccc1 [n,n-diethylaniline]	-38 °C
CCCC1(O)CCC2C3CCC4CC(OC(C)=O)CCC4(C)C3CCC21C (stereo unspecified)	121 °C
ClCCCCCl [1,4-dichlorobutane]	-38 °C
C(=C/C#N)C#N [fumaronitrile]	97 °C
O=C(O)CI [iodoacetic acid]	81 °C
N#Cc1cccc(C=O)c1 [3-cyanobenzaldehyde]	77 °C
OB(O)c1cccc(CBr)c1 [3-(bromomethyl)benzeneboronic acid]	215 °C
Oc1cc(Cl)ccc1Oc1ccc(Cl)cc1Cl [5-chloro-2-(2,4-dichlorophenoxy)phenol]	57 °C
CN(C)c1ccc(N)cc1 [N,N-Dimethylbenzene-1,4-diamine]	35 °C
CC(Cc1ccccc1)NCCC(c1ccccc1)c1ccccc1 (stereo unspecified) [Prenylamine]	36.5 °C
CCBr [bromoethane]	-119 °C
CCCCC1(CC)C(=O)NC(=O)NC1=O [Butethal]	128 °C
COS(=O)(=O)c1ccc(C)cc1 [methyl p-toluenesulfonate]	26 °C
